Assay results reported in the NIST ThermoML archive (doi:10.1021/je800251v).

Conditions: Liquid

CCOC(=O)CC [ethyl propanoate]
mass density [kg/m3]
Conditions	333.15 K	338.15 K	343.15 K	348.15 K	353.15 K	363.15 K	373.15 K	383.15 K	393.15 K
100 kPa	–	836.9	831.1	824.9	818.7	803.5	790.9	–	–
1000 kPa	–	838.2	832.2	826	819.9	805.1	792.6	780	766.4
2000 kPa	–	839.5	833.5	827.4	821.3	806.9	794.5	782.1	768.7
3000 kPa	–	840.7	834.8	828.8	822.7	808.7	796.4	784.1	770.8
3340 kPa	–	841.1	835.2	829.3	823.2	809.3	797.1	784.8	771.5
5000 kPa	–	843.1	837.4	831.5	825.6	812	800	787.9	775
10000 kPa	–	848.8	843.4	837.7	832.1	819.6	808.2	796.6	784.5
15000 kPa	–	854.4	848.9	843.4	838	826.5	815.6	804.6	793.1
20000 kPa	–	859.4	854	848.8	843.5	833	822.5	811.9	800.8
25000 kPa	–	863.6	859.1	854	848.9	839.1	829	818.7	808
30000 kPa	–	869.9	865	860.1	855.3	844.8	834.9	825	814.7
35000 kPa	880.6	875.8	871	866.3	861.6	850.2	840.6	830.9	820.9
